This test has as its target T1, human CCR-3 (Homo sapiens, UniProt P51677).
T1 construct: expressed in transfected cells; membranes used
T1 sequence (P51677 1-355): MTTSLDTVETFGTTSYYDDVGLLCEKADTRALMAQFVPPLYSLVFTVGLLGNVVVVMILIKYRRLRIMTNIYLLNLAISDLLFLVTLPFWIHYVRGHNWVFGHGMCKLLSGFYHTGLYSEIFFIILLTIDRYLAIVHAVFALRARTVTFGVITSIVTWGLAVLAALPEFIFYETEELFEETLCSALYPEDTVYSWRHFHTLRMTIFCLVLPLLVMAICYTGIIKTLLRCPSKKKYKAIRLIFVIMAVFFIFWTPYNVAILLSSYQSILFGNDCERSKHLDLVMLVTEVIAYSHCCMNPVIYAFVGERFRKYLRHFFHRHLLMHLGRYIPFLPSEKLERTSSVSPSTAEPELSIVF
The test can be described thus: [125I]-human eotaxin binding to CCR-3, SPA assay. The note with it: inhibition of [125I]-human eotaxin binding; membranes of RBL-2H3 cells stably expressing CCR3; 4 hours at room temperature. The source says: Recombinant cells expressing human CCR-3 are captured by wheatgerm agglutinin (WGA) polyvinyltoluidene (PVT) SPA beads (available from Amersham), through a specific interaction between the WGA and carbohydrate residues of glycoproteins on the surface of the cells. [^125I]-human eotaxin (available from Amersham) binds specifically to CCR-3 receptors bringing the [^125I]-human eotaxin in close proximity to the SPA beads. Emitted â-particles from the [^125I]-human eotaxin excite, by its proximity, the fluorophore in the beads and produce light.
Preparation of Assay Buffer: 5.96 g HEPES and 7.0 g sodium chloride are dissolved in distilled water and 1 M aqueous CaCl2 (1 ml) and 1M aqueous MgCl2 (5 ml) are added. The pH is adjusted to 7.6 with NaOH and the solution made to a final volume of 1 l using distilled water. 5 g bovine serum albumin and 0.1 g sodium azide are then dissolved in the solution and the resulting buffer stored at 4° C. […]
Preparation of membranes: Confluent rat basophil leukaemia (RBL-2H3) cells stably expressing CCR3 are removed from tissue culture flasks using enzyme-free cell dissociation buffer and resuspended in phosphate-buffered saline. […] The resulting scintillations are counted using a Canberra Packard TOPCOUNT™ scintillator counter, each well being counted for 1 minute. […]

One may read the IC50 as the concentration that gives 50% inhibition. High values mean weaker potency in that assay, low ones greater potency in that assay.

Turning to `Cc1noc(C)c1NC(=O)NCCCCN(C)Cc1ccc(F)cc1` [Example 1, 1-(3,5-Dimethyl-isoxazole-4-yl)-3-[4-[(4-fluorobenzyl)methylamino]-butyl]-urea], the IC50 worked out at 1540 nM.

The compound `CN(CCCCNC(=O)Nc1ccc(F)c(F)c1)Cc1ccc(F)cc1` [Example 2, 1-(3,4-difluorophenyl)-3-{4-[(4-fluorobenzyl)methylamino]-butyl}-urea] registered an IC50 of 49 nM.

Source of the values: patent US20080096943A1, “Organic Compunds” (priority 2004, published 2008).
